Laboratory results: ChEMBL document CHEMBL4622874, “Discovery of ORN0829, a potent dual orexin 1/2 receptor antagonist for the treatment of insomnia” (Bioorg Med Chem, 2020)
Active and inactive are the calls of the source. No cut-off for these calls is given here.

Tests used:
[1] = Half-life in human plasma at 40 mg,po administered once daily; assay type: ADME, cell-free
[2] = Half-life in human at 10 to 80 mg, po administered as single dose; assay type: ADME, organism-based; conditions: in vivo
[3] = biological target: T1, Orexin/Hypocretin receptor type 1 (Homo sapiens, UniProt O43613); assay: Antagonist activity at human recombinant OX1R expressed in CHOK1 cells assessed as inhibition of orexin A-induced intracellular Ca2+ release preincubated for 30 mins followed by orexin-A stimulation by Fluo4-AM dye based fluorescence analysis; assay type: functional, cell-based, CHO-K1
T1 sequence (O43613 whole entry): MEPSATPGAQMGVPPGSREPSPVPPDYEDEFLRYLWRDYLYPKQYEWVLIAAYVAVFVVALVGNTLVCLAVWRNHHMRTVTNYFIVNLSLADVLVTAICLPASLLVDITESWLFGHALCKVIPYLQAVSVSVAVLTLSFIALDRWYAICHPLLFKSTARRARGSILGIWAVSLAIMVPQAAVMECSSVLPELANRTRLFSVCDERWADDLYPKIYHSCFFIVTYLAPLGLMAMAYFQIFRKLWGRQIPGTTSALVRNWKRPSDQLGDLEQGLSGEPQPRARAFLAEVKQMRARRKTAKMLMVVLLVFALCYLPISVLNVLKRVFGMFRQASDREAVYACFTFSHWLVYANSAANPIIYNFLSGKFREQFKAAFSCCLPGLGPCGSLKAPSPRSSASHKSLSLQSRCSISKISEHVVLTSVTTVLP

[4] = biological target: T2, Orexin receptor type 2 (Homo sapiens, UniProt O43614); assay: Antagonist activity at human recombinant OX2R expressed in CHOK1 cells assessed as inhibition of orexin A-induced intracellular Ca2+ release preincubated for 30 mins followed by orexin-A stimulation by Fluo-4AM dye based fluorescence analysis; assay type: functional, cell-based, CHO-K1
T2 sequence (O43614 whole entry): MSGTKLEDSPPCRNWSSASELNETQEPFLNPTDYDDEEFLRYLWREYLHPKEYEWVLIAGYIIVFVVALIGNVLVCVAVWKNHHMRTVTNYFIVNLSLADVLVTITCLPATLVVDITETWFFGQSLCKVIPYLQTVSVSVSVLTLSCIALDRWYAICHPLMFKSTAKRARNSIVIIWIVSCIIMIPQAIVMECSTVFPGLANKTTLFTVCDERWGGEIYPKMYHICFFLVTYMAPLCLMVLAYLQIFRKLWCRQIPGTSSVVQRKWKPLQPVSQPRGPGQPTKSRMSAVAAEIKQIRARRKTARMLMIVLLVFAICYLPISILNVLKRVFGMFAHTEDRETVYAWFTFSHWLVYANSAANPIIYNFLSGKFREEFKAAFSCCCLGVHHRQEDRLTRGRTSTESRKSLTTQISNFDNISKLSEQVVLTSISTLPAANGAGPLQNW

[5] = Lipophilicity, log D of the compound at pH 7.4 by HPLC analysis; assay type: physicochemical; conditions: buffer
[6] = Half-life in dog at 0.5 mg/kg, iv; assay type: ADME, organism-based, Canis lupus familiaris; conditions: in vivo
[7] = Half-life in Sprague-Dawley rat at 2 mg/kg, iv; assay type: ADME, organism-based; conditions: in vivo
[8] = test system: Rattus norvegicus; assay: Sleep-promoting activity in ip dosed Wistar rat by polysomnography; assay type: functional; conditions: read-out: MED
[9] = Half-life in human; assay type: ADME
[10] = Drug metabolism in human liver microsomes incubated for 15 mins; assay type: ADME, Microsome; conditions: read-out: Drug metabolism
[11] = biological target: P-gp (ABCB1) (Homo sapiens, UniProt P08183); assay: Substrate activity at P-gp (unknown origin) assessed as efflux ratio; assay type: ADME; conditions: not told
P-gp (ABCB1), sequence (P08183 whole entry): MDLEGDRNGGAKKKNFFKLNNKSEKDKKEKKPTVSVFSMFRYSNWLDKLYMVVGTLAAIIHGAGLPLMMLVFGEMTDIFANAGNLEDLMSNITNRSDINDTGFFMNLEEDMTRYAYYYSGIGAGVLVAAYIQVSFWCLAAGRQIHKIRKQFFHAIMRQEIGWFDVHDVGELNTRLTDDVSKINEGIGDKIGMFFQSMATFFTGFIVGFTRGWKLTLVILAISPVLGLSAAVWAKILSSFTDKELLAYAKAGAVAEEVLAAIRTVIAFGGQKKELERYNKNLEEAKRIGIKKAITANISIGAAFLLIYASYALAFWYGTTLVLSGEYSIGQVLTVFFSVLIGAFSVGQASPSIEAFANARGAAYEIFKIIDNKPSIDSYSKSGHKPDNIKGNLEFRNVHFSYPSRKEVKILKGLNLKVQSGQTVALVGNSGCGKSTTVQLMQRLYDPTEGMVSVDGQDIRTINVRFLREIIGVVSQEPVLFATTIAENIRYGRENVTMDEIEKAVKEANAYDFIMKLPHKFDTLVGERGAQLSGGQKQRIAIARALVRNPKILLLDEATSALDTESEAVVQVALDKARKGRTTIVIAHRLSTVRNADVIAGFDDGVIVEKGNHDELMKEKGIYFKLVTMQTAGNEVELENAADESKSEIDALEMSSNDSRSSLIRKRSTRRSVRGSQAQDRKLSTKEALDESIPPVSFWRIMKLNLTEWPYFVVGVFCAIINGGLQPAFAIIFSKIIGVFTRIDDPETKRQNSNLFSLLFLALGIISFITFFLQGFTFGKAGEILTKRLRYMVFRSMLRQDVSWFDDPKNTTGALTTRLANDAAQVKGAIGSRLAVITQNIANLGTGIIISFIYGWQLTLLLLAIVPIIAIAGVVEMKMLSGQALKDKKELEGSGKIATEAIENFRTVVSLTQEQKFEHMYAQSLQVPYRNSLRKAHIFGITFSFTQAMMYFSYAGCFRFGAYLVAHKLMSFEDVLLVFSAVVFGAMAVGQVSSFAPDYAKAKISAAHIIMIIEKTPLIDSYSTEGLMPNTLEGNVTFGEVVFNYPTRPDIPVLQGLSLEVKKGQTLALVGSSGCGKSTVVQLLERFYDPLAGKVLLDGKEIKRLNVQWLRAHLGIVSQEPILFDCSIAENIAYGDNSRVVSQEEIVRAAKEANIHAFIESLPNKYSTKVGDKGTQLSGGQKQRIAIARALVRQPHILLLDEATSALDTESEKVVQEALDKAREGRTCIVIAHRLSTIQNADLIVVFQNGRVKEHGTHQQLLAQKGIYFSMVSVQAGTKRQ

[12] = Volume of distribution in Sprague-Dawley rat at 1 mg/kg or 2 mg/kg, iv; assay type: ADME, organism-based; conditions: in vivo
[13] = Volume of distribution in dog at 0.5 mg/kg, iv; assay type: ADME, organism-based, Canis lupus familiaris; conditions: in vivo
[14] = Clearance in Sprague-Dawley rat at 1 mg/kg or 2 mg/kg, iv; assay type: ADME, organism-based; conditions: in vivo
[15] = Clearance in dog at 0.5 mg/kg, iv; assay type: ADME, organism-based, Canis lupus familiaris; conditions: in vivo
[16] = Half-life in Sprague-Dawley rat at 1 mg/kg or 2 mg/kg, iv; assay type: ADME, organism-based; conditions: in vivo
[17] = Tmax in Sprague-Dawley rat at 3 mg/kg, po; assay type: ADME, organism-based; conditions: in vivo
[18] = Tmax in dog at 3 mg/kg, po; assay type: ADME, organism-based, Canis lupus familiaris; conditions: in vivo
[19] = Ratio of drug level in brain to plasma in Sprague-Dawley rat at 3 mg/kg, po; assay type: ADME, organism-based
[20] = Ratio of drug level in cerebrospinal fluid to plasma in Sprague-Dawley rat at 3 mg/kg, po; assay type: ADME, organism-based; conditions: csf
[21] = Oral bioavailability in Sprague-Dawley rat at 3 mg/kg; assay type: ADME, organism-based; conditions: in vivo
[22] = Oral bioavailability in dog at 3 mg/kg; assay type: ADME, organism-based, Canis lupus familiaris; conditions: in vivo
[23] = Plasma protein binding in Sprague-Dawley rat at 2 ug/mL; assay type: ADME, cell-free; conditions: read-out: PPB (converted)
[24] = Plasma protein binding in dog at 2 ug/mL; assay type: ADME, cell-free, Canis lupus familiaris; conditions: read-out: PPB (converted)
[25] = test system: Rattus norvegicus; assay: Sleep-promoting activity in Wistar rat assessed as fast sleep onset latency at 1 to10 mg/kg, po administered 10 mins prior to the onset of dark period measured every 20s for 2 hrs by polysomnography; assay type: functional, organism-based
[26] = test system: Rattus norvegicus; assay: Sleep-promoting activity in po dosed Wistar rat assessed as increase in total sleep administered 10 mins prior to the onset of dark period measured every 20s for 2 hrs by polysomnography; assay type: functional, organism-based
[27] = biological target: T3, Orexin/Hypocretin receptor type 1 (Rattus norvegicus) (UniProt P56718); assay: Antagonist activity at rat recombinant OX1R expressed in CHOK1 cells assessed as inhibition of orexin A-induced intracellular Ca2+ release preincubated for 30 mins followed by orexin-A stimulation by Fluo4-AM dye based fluorescence analysis; assay type: functional, cell-based; conditions: CHO-K1
T3 sequence (whole entry): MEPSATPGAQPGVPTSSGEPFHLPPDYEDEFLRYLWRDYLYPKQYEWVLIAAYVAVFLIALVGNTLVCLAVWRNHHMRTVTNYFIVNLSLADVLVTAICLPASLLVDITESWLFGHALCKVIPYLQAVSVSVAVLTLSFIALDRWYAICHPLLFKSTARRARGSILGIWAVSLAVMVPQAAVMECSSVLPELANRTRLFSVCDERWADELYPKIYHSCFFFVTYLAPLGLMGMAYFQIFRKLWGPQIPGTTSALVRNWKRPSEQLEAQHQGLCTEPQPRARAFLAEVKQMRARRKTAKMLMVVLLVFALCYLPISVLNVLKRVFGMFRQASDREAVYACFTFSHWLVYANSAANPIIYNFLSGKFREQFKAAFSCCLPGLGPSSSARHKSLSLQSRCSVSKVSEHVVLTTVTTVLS

[28] = biological target: T4, Orexin receptor type 2 (Rattus norvegicus) (UniProt P56719); assay: Antagonist activity at rat recombinant OX2R expressed in CHOK1 cells assessed as inhibition of orexin A-induced intracellular Ca2+ release preincubated for 30 mins followed by orexin-A stimulation by Fluo4-AM dye based fluorescence analysis; assay type: functional, cell-based; conditions: CHO-K1
T4 sequence (whole entry): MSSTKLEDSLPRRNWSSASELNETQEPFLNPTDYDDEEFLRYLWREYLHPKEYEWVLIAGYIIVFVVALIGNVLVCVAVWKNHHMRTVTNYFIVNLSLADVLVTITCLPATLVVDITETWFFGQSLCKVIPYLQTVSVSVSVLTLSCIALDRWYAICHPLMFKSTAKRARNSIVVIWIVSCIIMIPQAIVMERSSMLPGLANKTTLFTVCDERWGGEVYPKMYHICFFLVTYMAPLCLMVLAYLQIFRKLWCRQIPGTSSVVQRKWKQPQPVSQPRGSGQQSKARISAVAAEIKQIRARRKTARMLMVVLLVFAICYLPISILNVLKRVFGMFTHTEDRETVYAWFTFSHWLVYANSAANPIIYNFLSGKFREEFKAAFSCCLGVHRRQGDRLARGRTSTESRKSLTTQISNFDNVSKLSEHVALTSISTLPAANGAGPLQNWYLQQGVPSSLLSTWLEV

[29] = Chemical stability of the compound in JP 1st fluid at pH 1.2 at 37 degC incubated for 24 hrs; assay type: physicochemical; conditions: buffer, pH 1.2, 24 h
[30] = Drug metabolism in dog liver microsomes incubated for 15 mins; assay type: ADME, Canis lupus familiaris, Microsome; conditions: read-out: Drug metabolism
[31] = Drug metabolism in rat liver microsomes incubated for 15 mins; assay type: ADME, Microsome; conditions: read-out: Drug metabolism
[32] = Drug uptake in cerebrospinal fluid in Sprague-Dawley rat at 3 mg/kg, po measured after 1 hr; assay type: ADME, organism-based; conditions: read-out: Drug uptake
[33] = test system: Rattus norvegicus; assay: Sleep-promoting activity in po dosed Wistar rat administered 10 mins prior to the onset of dark period measured every 20s for 2 hrs by polysomnography; assay type: functional; conditions: read-out: MED

## Cc1ccc(-n2nccn2)c(C(=O)N2CCN(c3nc4cc(Cl)ccc4o3)CC[C@H]2C)c1 [SUVOREXANT]
[1]
  half-life: 12 h

## Cc1cc(C)nc(N2CC3CN(C(=O)c4c(F)cccc4-n4nccn4)CC3C2)n1 (configuration not stated) [SELTOREXANT]
[2]
  half-life: 2 h

## CCN(CCn1ccc(-c2ccc(F)cn2)n1)C(=O)c1ccccc1-n1nccn1
[3]
  IC50: 20.6 nM
[4]
  IC50: 38.7 nM
[5]
  logD: 2.53
[6]
  half-life: 1.07 h
[7]
  half-life: 0.412 h
[8]
  minimal effective dose: 3 mg/kg

## COc1ccc(-n2nccn2)c(C(=O)N2CCC[C@@]2(C)c2nc3c(C)c(Cl)ccc3[nH]2)c1 [DARIDOREXANT]
[9]
  half-life: 6 h

## Cc1ccc(-n2nccn2)c(C(=O)N2CCCO[C@H]2Cn2ccc(-c3ccc(F)cn3)n2)c1
[3]
  IC50: 1.05 nM
[4]
  IC50: 1.27 nM
[10]
  metabolised at 0.25 h: 34.4%
[11]
  efflux ratio: 2.43
[5]
  logD: 2.58
[12]
  Vd: 0.853 L/kg
[13]
  Vd: 0.294 L/kg
[14]
  clearance: 39.5 mL/min/kg
[15]
  clearance: 2.65 mL/min/kg
[16]
  half-life: 0.238 h
[6]
  half-life: 1.16 h
[17]
  Tmax: 0.333 h
[18]
  Tmax: 0.583 h
[19]
  Ratio: 13.5%
[20]
  Ratio: 3.1%
[21]
  bioavailability: 5.5%
[22]
  bioavailability: 61.6%
[23]
  fraction unbound at 2 ug/mL: 0.12
[24]
  fraction unbound at 2 ug/mL: 0.036
[25]
  Activity: Active
[26]
  Activity: Dose-dependent effect
[27]
  Kb: 0.44 nM
[28]
  Kb: 0.8 nM
[29]
  Stability: Stable
[30]
  metabolised at 0.25 h: 10.5%
[31]
  metabolised at 0.25 h: 51%
[32]
  concentration at 1 h: 2.23 nM
[33]
  minimal effective dose: 1 mg/kg
